Assay results taken from PMC8698768, “The Effects of Sorbus aucuparia L. Fruit Extracts on Oxidative/Nitrative Modifications of Human Fibrinogen, Impact on Enzymatic Properties of Thrombin, and Hyaluronidase Activity In Vitro” (Antioxidants, 2021).

Assays:
[1] = molecular target: T1, hyaluronidase from bovine testes type I-S (Bos taurus, UniProt F1MTV1); assay: turbidimetric hyaluronidase inhibition assay; type: biochemical; settings: substrate hyaluronic acid 0.03%, with bovine serum albumin 0.1%; per mL of the enzyme solution; read-out: IC50 (μg/mL) ^a
T1 construct: gene SPAM1; native commercial preparation from bovine testes (Sigma-Aldrich, type I-S)
T1 sequence (F1MTV1 36-553): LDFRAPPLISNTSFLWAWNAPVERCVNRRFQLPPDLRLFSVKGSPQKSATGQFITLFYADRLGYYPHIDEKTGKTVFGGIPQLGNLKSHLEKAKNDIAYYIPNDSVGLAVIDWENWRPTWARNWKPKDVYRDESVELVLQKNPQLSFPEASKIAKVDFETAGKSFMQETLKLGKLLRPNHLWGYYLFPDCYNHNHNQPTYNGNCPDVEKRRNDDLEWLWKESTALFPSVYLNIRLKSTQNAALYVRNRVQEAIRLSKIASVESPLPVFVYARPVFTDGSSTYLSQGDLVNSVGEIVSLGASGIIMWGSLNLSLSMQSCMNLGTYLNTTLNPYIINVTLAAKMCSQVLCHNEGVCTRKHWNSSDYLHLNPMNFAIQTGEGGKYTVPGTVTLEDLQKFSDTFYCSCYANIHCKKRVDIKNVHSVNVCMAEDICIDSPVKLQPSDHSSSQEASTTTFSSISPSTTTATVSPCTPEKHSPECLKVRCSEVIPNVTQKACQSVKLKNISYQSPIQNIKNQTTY
From the text: turbidimetric hyaluronidase inhibition assay on hyaluronidase from bovine testes type I-S

thrombin = molecular target: T2, thrombin (Bos taurus, UniProt P00735); assay: chromogenic amidolytic assay (S-2238), […] nm; type: biochemical; settings: read-out: % inhibition at 50 μg/mL
T2 construct: gene F2; Biomed Lublin thrombin is usually of bovine origin, human (P00734) not excluded

IC50 [1] [µM] | inhibition at 50 µg/mL (thrombin) [%] | Compound
> 319 |  | O=c1c(O[C@@H]2O[C@H](CO)[C@@H](O)[C@H](O)[C@H]2O[C@@H]2O[C@H](CO)[C@@H](O)[C@H](O)[C@H]2O)c(-c2ccc(O)c(O)c2)oc2cc(O)cc(O)c12 [SQ, quercetin 3-O-β-sophoroside]
> 207 | 27 | Oc1cc(O)c2c(c1)O[C@H](c1ccc(O)c(O)c1)[C@H](O)[C@H]2c1c(O)cc(O)c2c1O[C@H](c1ccc(O)c(O)c1)[C@H](O)C2 [PB2, procyanidin B2]
> 339 |  | O=C(/C=C/c1ccc(O)c(O)c1)O[C@@H]1C[C@](O)(C(=O)O)C[C@@H](O)[C@H]1O [CHA, chlorogenic acid]
> 431 |  | O=c1c(O[C@@H]2O[C@H](CO)[C@@H](O)[C@H](O)[C@H]2O)c(-c2ccc(O)c(O)c2)oc2cc(O)cc(O)c12 [IQ, isoquercitrin]
